Where only a bound is given, the exact number is not on record here.

Common to all, as to assay type: cell-based, Streptomyces coelicolor
Assay [1] deals with S. coelicolor LAG4 (LAG2 ΔvanX). The experiment in a line: LC-MS analysis of peptidoglycan precursors, time course after D-Ala addition. The protocol: (§1) To investigate what the effect would be of the addition of excess of D-Ala on the accumulation of wild-type precursors, a time-course experiment was performed to follow the effect of D-Ala addition on the ratio between wild-type and resistant precursors. Therefore, 300 ml liquid-grown NMMP cultures were supplemented with either D-Ala or L-Ala (control) at 50 mM end concentration, and 10 ml samples were collected prior to and 1, 5, 15, 30, 60, 120 and 180 minutes after the addition of either alanine stereoisomer. Samples were immediately filtered by vacuum filtration, washed in 0.9% NaCl, biomass scraped off the filter, added to a tube containing 5% TCA and samples prepared as described above. […] However, addition of 50 mM D-Ala triggered the production of small amounts of wt precursor (1%) within 1 minute. After 15 minutes, this amount had increased to 4%, which appeared to be close to the maximum, with levels of wt precursors never exceeding 5%.
For the precursor isolation and identification, a modification of the method described previously by Hong and colleagues (Hong et al., 2004) was used. 10 μg vancomycin was added to the strains at the moment of inoculation. The strains were grown in NMMP (1% (w/v) Mannitol, 50 mM MgCl2) until mid-log phase (OD-0.3-0.4) and mycelia were harvested by centrifugation at 4° C. and washed in 0.9% NaCl. The mycelium was extracted with 5% cold trichloric acid (TCA) for 30 minutes at 4° C. This was centrifuged and the supernatant desalted on a Sephadex G-25 column (Illustra NAP-10 Columns, GE Healthcare, Pittsburgh), and concentrated by rotary evaporation. The concentrated precursors were dissolved in HPLC-grade water and separated by LC-MS using a gradient of 0-20% acetonitrile in water with 0.1% TFA. The elution was monitored at 254 nm and monitored by the sizes eluted (1193.8-1195.3). […]

In another assay the test system is S. coelicolor LAG2. The experiment in a line: LC-MS analysis of peptidoglycan precursors, including time course after alanine addition. The protocol: In order to get more insights into the synthesis of vancomycin-sensitive (i.e., wild-type) or the alternate vancomycin-resistant peptidoglycan, the pool of peptidoglycan precursors was analyzed by Liquid Chromatography coupled to Mass Spectrometry (LC-MS). When cells produce wild-type PG, only the MurNac-pentapeptide with a D-Ala-D-Ala terminus are detected, while vancomycin-resistant PG precursors have a D-Ala-D-Lac terminus. To analyze the precursors produced in S. coelicolor M145 and its mutant derivatives LAG1 (Δddl) and LAG2 (Δddl vanS::IS466A) in the presence or absence of vancomycin, the strains were grown until exponential phase, after which the cultures were harvested, washed and the precursors extracted with 5% TCA. The supernatants were desalted, concentrated and analyzed by LC-MS (see Materials and Methods section).
as §1
For the precursor isolation and identification, a modification of the method described previously by Hong and colleagues (Hong et al., 2004) was used. 10 μg vancomycin was added to the strains at the moment of inoculation. The strains were grown in NMMP (1% (w/v) Mannitol, 50 mM MgCl2) until mid-log phase (OD-0.3-0.4) and mycelia were harvested by centrifugation at 4° C. and washed in 0.9% NaCl. The mycelium was extracted with 5% cold trichloric acid (TCA) for 30 minutes at 4° C. This was centrifuged and the supernatant desalted on a Sephadex G-25 column (Illustra NAP-10 Columns, GE Healthcare, Pittsburgh), and concentrated by rotary evaporation. The concentrated precursors were dissolved in HPLC-grade water and separated by LC-MS using a gradient of 0-20% acetonitrile in water with 0.1% TFA. The elution was monitored at 254 nm and monitored by the sizes eluted (1193.8-1195.3).
For the measurement over time, the protocol was adjusted in the following way: 300 ml NMMP cultures were grown until exponential phase, at which point a 10 ml sample was taken (sample t=0) and 50 mM of D-Ala or L-Ala was added, followed by further sampling after 1, 5, 15, 30, 60, 120 and 180 minutes. Samples were rapidly filtered with a vacuum pump and washed with 0.9% (w/v) NaCl, mycelia scraped off the filter and transferred to 5% TCA.

Assay [2] relates to S. coelicolor M145 ΔvanX (LAG3). As to the kind of experiment: MIC of vancomycin on MM agar plates with added D-Ala. Particulars: M145 ΔvanX, 1000-fold lower D-Ala concentration than for M145. An excerpt:
VanX effectively eradicates the D-Ala-D-Ala dipeptide, thereby counteracting the accumulation of wild-type precursors and supporting vancomycin resistance (Lessard and Walsh, 1999; Tan et al., 2002). Therefore, a vanX null mutant was created using a similar strategy as for ddl, replacing the coding region of vanX by the apramycin resistance cassette aacC4. The mutant was created in both the parental strain S. coelicolor M145 and in its ddl suppressor mutant LAG2, generating LAG3 (M145 ΔvanX) and LAG4 (M145 Δddl ΔvanX vanS::IS466A), respectively.
LAG4 produced 20% wt precursors prior to the addition of D-Ala.
(§2) Escherichia coli strains JM109 (Sambrook et al., 1989) and ET12567 (Kieser et al., 2000) were used for routine cloning procedures and for extracting non-methylated DNA, respectively. Cells of E. coli were grown in Luria-Berani broth (LB) at 37° C. Streptomyces coelicolor A3(2) M145 was the parent of all mutants described in this work. All media and routine Streptomyces techniques were carried out as described (Kieser et al., 2000). SFM (soy flour mannitol) agar plates were used for propagating S. coelicolor strains and to prepare spore suspensions. For liquid-grown cultures, S. coelicolor mycelia were grown in normal minimal media with phosphate (NMMP) supplemented with 1% (w/v) mannitol as the sole carbon source. The MIC of vancomycin against S. coelicolor M145 and its mutant derivatives were determined by growth on minimal media (MM) agar plates supplemented with 1% mannitol as the sole carbon source, and 0, 2, 4, 8, 16, 32, 64, 128, 256 or 512 μg/ml vancomycin, in combination with 0, 1, 5, 10 or 50 mM of D-Ala or L-Ala. The vanX deletion mutants have been tested with 1, 5, 10, 50 and 100 μM D-Ala and L-Ala.

In another assay the test system is S. coelicolor M145. As to the kind of experiment: MIC of vancomycin on MM agar plates with added D-Ala or L-Ala. The settings on record: M145, up to 50 mg/ml L-Ala (control). The protocol:
The naturally vancomycin-resistant model organism S. coelicolor M145 was used as the initial test system. The strain was grown on solid minimal medium (MM) agar plates with increasing amounts of D-Ala and vancomycin. D-Ala was thereby added in concentrations of 5, 10 and 50 mM and the effect on the MIC of vancomycin assessed. As a first control, L-Ala was added and, as a second control, no amino acids were added. […] This was not altered when the culture media were supplemented with up to 50 mg/ml L-Ala (Table 1 and FIG. 6).
as §2

Assay [3] deals with S. coelicolor LAG2 (ddl suppressor mutant). The description is as above. The settings on record: LAG2, L-Ala (control). The protocol:
VanS is the sensory kinase of a two-component system formed with VanR, and it has been shown previously that certain mutations in vanS will constitutively upregulate the vancomycin resistance cluster, explaining the viability of strain LAG2 in the absence of vancomycin.
as §2

As to `C[C@@H](N)C(=O)O` [D-Ala, D-alanine], the wild-type precursor in assay [1] (LAG4, 3 hours after addition of D-Ala) was found to be 80%; in assay [1] (LAG4, after addition of D-Ala, 1 and 5 minutes) it was 25%; in assay [1] (LAG4, after addition of D-Ala, 15-30 minutes) it was 40%. In addition, the wt precursor was determined as 4% with S. coelicolor LAG2 (LAG2, 50 mM D-Ala, after 15 minutes) and 1% with S. coelicolor LAG2 (LAG2, 50 mM D-Ala, within 1 minute). The “wt precursor, maximum level” value with S. coelicolor LAG2 (LAG2, 50 mM D-Ala, up to 180 minutes) is on record as ≤ 5%. In addition, the “stronger reduction of the MIC of vancomycin as compared to M145” value in assay [2] is reported as 4 fold.

For `C[C@H](N)C(=O)O` [L-Ala], in the assay on S. coelicolor M145, the “effect of L-Ala on the MIC of vancomycin” value is given as “not altered”. In the assay on S. coelicolor LAG2 (LAG2, 50 mM L-Ala (control)), the “production of wt precursors” value is listed as “did not activate the production of detectable levels”. Also, the “effect of L-Ala on the MIC for vancomycin” value in assay [3] was “did not affect the MIC”.
